Experimental findings from patent US20080207683A1, “BIARYL-S[…]-PYRAZOLO-PYRIDINE MODULATORS OF CATHEPSIN S” (priority 2007, published 2008) are described below.

The structures appear in SMILES notation.

In the first experiment the target is T1, Human CatS (Homo sapiens, UniProt P25774).
T1 construct: made in house; host or cells: Sf9 insect cells (baculovirus vector pFB+HT)
T1 sequence (P25774 115-331): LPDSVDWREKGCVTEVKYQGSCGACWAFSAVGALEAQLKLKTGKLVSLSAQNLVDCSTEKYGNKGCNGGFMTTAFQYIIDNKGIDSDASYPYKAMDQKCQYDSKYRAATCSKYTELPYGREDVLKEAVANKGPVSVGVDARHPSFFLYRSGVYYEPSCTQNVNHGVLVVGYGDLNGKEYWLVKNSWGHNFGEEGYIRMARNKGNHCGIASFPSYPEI
The experiment is described as follows: CatS inhibition of hydrolysis of fluorescent substrate Z-Val-Val-Arg-AFC. The class given is biochemical.
Conditions: not given
On the procedure:
Human CatS was cloned into pFB+HT (from Stratagene clone), expressed in Sf9 cells, and purified over a Ni column. Fractions were concentrated and activated at pH 4.0 for 6 hr and then purified over a thiopropylsepharose column and eluted with 1×TBS, 500 mM NaCl, 1 mM EDTA, 25 mM DTT pH 7.6. Glycerol (50%) was added in a 1:1 (vol/vol) ratio (25% glycerol final) and protein was stored at −80° C. in 5 μL aliquots. […] The increase in fluorescence over time was monitored using λexcitation=400 nm and λemission=505 nm.
In equation 1, v is the initial rate measured in the presence of [I]0, the inhibitor concentration, using an enzyme concentration [E]0. v0 is the initial rate measured in the absence of inhibitor.
The compound `COc1ccc(CNC(=O)c2cccc(-c3cc(-c4nn(CCCN5CCCC5)c5c4CN(S(C)(=O)=O)CC5)ccc3Cl)c2)cc1` [Example 15, 2′-Chloro-5′-[5-methanesulfonyl-1-(3-pyrrolidin-1-yl-propyl)-4,5,6,7-tetrahydro-1H-pyrazolo[4,3-c]pyridin-3-yl]-biphenyl-3-carboxylic acid 4-methoxy-benzylamide] returned a Ki of 0.45 µM.

As for `Cc1ccc2[nH]c([C@H](C)NC(=O)c3cccc(-c4cc(-c5nn(CCCN6CCCC6)c6c5CN(S(C)(=O)=O)CC6)ccc4Cl)c3)nc2c1` [Example 20, (S)-2′-Chloro-5′-[5-methanesulfonyl-1-(3-pyrrolidin-1-yl-propyl)-4,5,6,7-tetrahydro-1H-pyrazolo[4,3-c]pyridin-3-yl]-biphenyl-3-carboxylic acid [1-(5-methyl-1H-benzoimidazol-2-yl)-ethyl]-amide], the Ki was 0.188 µM.

Still in this experiment, the particulars now being: apparent Ki, Morrison equation fit of initial rates; 10 μM Z-Val-Val-Arg-AFC, pH 5.0, 1.5 nM CatS; read-out: CatS Ki^app.
Regarding `CC(=O)N1CCc2c(c(-c3ccc(Cl)c(-c4cccc(C(=O)NCCN5CCc6cc(C)ccc65)c4)c3)nn2CCCN2CCCC2)C1` [Example 40, 5′-[5-Acetyl-1-(3-pyrrolidin-1-yl-propyl)-4,5,6,7-tetrahydro-1H-pyrazolo[4,3-c]pyridin-3-yl]-2′-chloro-biphenyl-3-carboxylic acid [2-(5-methyl-2,3-dihydro-indol-1-yl)-ethyl]-amide], the Ki stood at 0.228 µM.

As to `CS(=O)(=O)N1CCc2c(c(-c3ccc(Cl)c(-c4cccc(C(=O)NCc5nc6ccccc6s5)c4)c3)nn2CCCN2CCC(O)C2)C1` (stereo not drawn) [Example 30, 2′-Chloro-5′-{1-[3-(3-hydroxy-pyrrolidin-1-yl)-propyl]-5-methanesulfonyl-4,5,6,7-tetrahydro-1H-pyrazolo[4,3-c]pyridin-3-yl}-biphenyl-3-carboxylic acid (benzothiazol-2-ylmethyl)-amide], the Ki was 0.325 µM.

Turning to `CS(=O)(=O)N1CCc2c(c(-c3ccc(Cl)c(-c4cccc(C(=O)NCc5nc6ccccc6s5)c4)c3)nn2CCCN2CCC(N3CCCC3=O)CC2)C1` [Example 34, 2′-Chloro-5′-(5-methanesulfonyl-1-{3-[4-(2-oxo-pyrrolidin-1-yl)-piperidin-1-yl]-propyl}-4,5,6,7-tetrahydro-1H-pyrazolo[4,3-c]pyridin-3-yl)-biphenyl-3-carboxylic acid (benzothiazol-2-ylmethyl)-amide], the Ki is 0.0723 µM.

`CS(=O)(=O)N1CCc2c(c(-c3ccc(Cl)c(-c4cccc(C(=O)NCc5nc6cc(Cl)ccc6[nH]5)c4)c3)nn2CCCN2CCCC2)C1` [Example 21, 2′-Chloro-5′-[5-methanesulfonyl-1-(3-pyrrolidin-1-yl-propyl)-4,5,6,7-tetrahydro-1H-pyrazolo[4,3-c]pyridin-3-yl]-biphenyl-3-carboxylic acid (5-chloro-1H-benzoimidazol-2-ylmethyl)-amide]: the Ki worked out at 0.0703 µM.

With `CC(=O)N1CCc2c(c(-c3ccc(Cl)c(-c4cccc(C(=O)N[C@@H](C)c5nc6cc(F)c(F)cc6[nH]5)c4)c3)nn2CCCN2CCCC2)C1` [Example 37, (S)-5′-[5-Acetyl-1-(3-pyrrolidin-1-yl-propyl)-4,5,6,7-tetrahydro-1H-pyrazolo[4,3-c]pyridin-3-yl]-2′-chloro-biphenyl-3-carboxylic acid [1-(5,6-difluoro-1H-benzoimidazol-2-yl)-ethyl]-amide], the Ki worked out at 0.0385 µM.

`COc1ccc(NCCNC(=O)c2cccc(-c3cc(-c4nn(CCCN5CCCC5)c5c4CN(S(C)(=O)=O)CC5)ccc3Cl)c2)cn1` [Example 6, 2′-Chloro-5′-[5-methanesulfonyl-1-(3-pyrrolidin-1-yl-propyl)-4,5,6,7-tetrahydro-1H-pyrazolo[4,3-c]pyridin-3-yl]-biphenyl-3-carboxylic acid [2-(6-methoxy-pyridin-3-ylamino)-ethyl]-amide]: the Ki turned out to be 0.317 µM.

In the case of `CC(NC(=O)c1cccc(-c2cc(-c3nn(CCCN4CCCC4)c4c3CN(S(C)(=O)=O)CC4)ccc2Cl)c1)c1nc2ccccc2[nH]1` (stereo not drawn) [Example 18, 2′-Chloro-5′-[5-methanesulfonyl-1-(3-pyrrolidin-1-yl-propyl)-4,5,6,7-tetrahydro-1H-pyrazolo[4,3-c]pyridin-3-yl]-biphenyl-3-carboxylic acid [1-(1H-benzoimidazol-2-yl)-ethyl]-amide], the Ki came to 0.0226 µM.

Take `COc1ccc(CNC(=O)c2cccc(-c3cc(-c4nn(CCCN5CCCC5)c5c4CN(C(C)=O)CC5)ccc3Cl)c2)cc1` [Example 41, 5′-[5-Acetyl-1-(3-pyrrolidin-1-yl-propyl)-4,5,6,7-tetrahydro-1H-pyrazolo[4,3-c]pyridin-3-yl]-2′-chloro-biphenyl-3-carboxylic acid 4-methoxy-benzylamide]: the Ki was 0.43 µM.

With `CS(=O)(=O)N1CCc2c(c(-c3ccc(Cl)c(-c4cccc(C(=O)NCc5nccs5)c4)c3)nn2CCCN2CCCC2)C1` [Example 19, 2′-Chloro-5′-[5-methanesulfonyl-1-(3-pyrrolidin-1-yl-propyl)-4,5,6,7-tetrahydro-1H-pyrazolo[4,3-c]pyridin-3-yl]-biphenyl-3-carboxylic acid (thiazol-2-ylmethyl)-amide], the Ki is 0.269 µM.

`CN(C)S(=O)(=O)c1cccc2c1N(CCNC(=O)c1cccc(-c3cc(-c4nn(CCCN5CCCC5)c5c4CN(S(C)(=O)=O)CC5)ccc3Cl)c1)CC2` [Example 10, 2′-Chloro-5′-[5-methanesulfonyl-1-(3-pyrrolidin-1-yl-propyl)-4,5,6,7-tetrahydro-1H-pyrazolo[4,3-c]pyridin-3-yl]-biphenyl-3-carboxylic acid [2-(7-dimethylsulfamoyl-2,3-dihydro-indol-1-yl)-ethyl]-amide]: the Ki worked out at 0.0494 µM.

Regarding `Cc1ccc(NCCNC(=O)c2cccc(-c3cc(-c4nn(CCCN5CCCC5)c5c4CN(S(C)(=O)=O)CC5)ccc3Cl)c2)cc1` [Example 2, 2′-Chloro-5′-[5-methanesulfonyl-1-(3-pyrrolidin-1-yl-propyl)-4,5,6,7-tetrahydro-1H-pyrazolo[4,3-c]pyridin-3-yl]-biphenyl-3-carboxylic acid (2-p-tolylamino-ethyl)-amide], the Ki is 0.345 µM.

Take `CC(C)(C)c1csc(CNC(=O)c2cccc(-c3cc(-c4nn(CCCN5CCCC5)c5c4CN(S(C)(=O)=O)CC5)ccc3Cl)c2)n1` [Example 22, 2′-Chloro-5′-[5-methanesulfonyl-1-(3-pyrrolidin-1-yl-propyl)-4,5,6,7-tetrahydro-1H-pyrazolo[4,3-c]pyridin-3-yl]-biphenyl-3-carboxylic acid (4-tert-butyl-thiazol-2-ylmethyl)-amide]: the Ki worked out at 0.0754 µM.

On to `CS(=O)(=O)N1CCc2c(c(-c3ccc(Cl)c(-c4cccc(C(=O)NCc5cccs5)c4)c3)nn2CCCN2CCCC2)C1` [Example 14, 2′-Chloro-5′-[5-methanesulfonyl-1-(3-pyrrolidin-1-yl-propyl)-4,5,6,7-tetrahydro-1H-pyrazolo[4,3-c]pyridin-3-yl]-biphenyl-3-carboxylic acid (thiophen-2-ylmethyl)-amide], for which the Ki came to 0.35 µM.

Regarding `CS(=O)(=O)N1CCc2c(c(-c3ccc(Cl)c(-c4cccc(C(=O)NCc5nc6cc(F)ccc6s5)c4)c3)nn2CCCN2CCCC2)C1` [Example 25, 2′-Chloro-5′-[5-methanesulfonyl-1-(3-pyrrolidin-1-yl-propyl)-4,5,6,7-tetrahydro-1H-pyrazolo[4,3-c]pyridin-3-yl]-biphenyl-3-carboxylic acid (5-fluoro-benzothiazol-2-ylmethyl)-amide], the Ki worked out at 0.117 µM.

On to `CC(=O)N1CCc2c(c(-c3ccc(Cl)c(-c4cccc(C(=O)N[C@@H](C)CN5CCc6cc(F)ccc65)c4)c3)nn2CCCN2CCCC2)C1` [Example 36, (S)-5′-[5-Acetyl-1-(3-pyrrolidin-1-yl-propyl)-4,5,6,7-tetrahydro-1H-pyrazolo[4,3-c]pyridin-3-yl]-2′-chloro-biphenyl-3-carboxylic acid [2-(5-fluoro-2,3-dihydro-indol-1-yl)-1-methyl-ethyl]-amide], for which the Ki stood at 0.736 µM.

As to `CC(C)c1ccc(NCCNC(=O)c2cccc(-c3cc(-c4nn(CCCN5CCC(O)C5)c5c4CNCC5)ccc3Cl)c2)cc1` (stereo not drawn) [Example 43, 2′-Chloro-5′-{1-[3-(3-hydroxy-pyrrolidin-1-yl)-propyl]-4,5,6,7-tetrahydro-1H-pyrazolo[4,3-c]pyridin-3-yl}-biphenyl-3-carboxylic acid [2-(4-isopropyl-phenylamino)-ethyl]-amide], the Ki was 0.0485 µM.

Take `Cc1ccc2[nH]c(C(C)NC(=O)c3cccc(-c4cc(-c5nn(CCCN6CCC(N7CCCC7=O)CC6)c6c5CN(S(C)(=O)=O)CC6)ccc4Cl)c3)nc2c1` (stereo not drawn) [Example 35, 2′-Chloro-5′-(5-methanesulfonyl-1-{3-[4-(2-oxo-pyrrolidin-1-yl)-piperidin-1-yl]-propyl}-4,5,6,7-tetrahydro-1H-pyrazolo[4,3-c]pyridin-3-yl)-biphenyl-3-carboxylic acid [1-(5-methyl-1H-benzoimidazol-2-yl)-ethyl]-amide]: the Ki is 0.123 µM.

Take `COc1ccc(NCCNC(=O)c2cccc(-c3cc(-c4nn(CCCN5CCC(O)C5)c5c4CNCC5)ccc3Cl)c2)cc1` (stereo not drawn) [Example 44, 2′-Chloro-5′-{1-[3-(3-hydroxy-pyrrolidin-1-yl)-propyl]-4,5,6,7-tetrahydro-1H-pyrazolo[4,3-c]pyridin-3-yl}-biphenyl-3-carboxylic acid [2-(4-methoxy-phenylamino)-ethyl]-amide]: the Ki came out at 0.0304 µM.

As for `CC(=O)N1CCc2c(c(-c3ccc(Cl)c(-c4cccc(C(=O)NC(C)c5nc6cc(C)ccc6[nH]5)c4)c3)nn2CCCN2CCCC2)C1` (stereo not drawn) [Example 39, 5′-[5-Acetyl-1-(3-pyrrolidin-1-yl-propyl)-4,5,6,7-tetrahydro-1H-pyrazolo[4,3-c]pyridin-3-yl]-2′-chloro-biphenyl-3-carboxylic acid [1-(5-methyl-1H-benzoimidazol-2-yl)-ethyl]-amide], the Ki came out at 0.037 µM.
